Where a name gives a salt, the structure may show the parent alone.
Experiment: blood potassium level from regular blood samples in the same clinical study
Format: in vivo, human
Conditions: after the 24th month, taking into account the starting value; vs placebo; p<0.0001
Description: The potassium concentration-modulating effect is clearly documented in the study by virtue of the results of analyses of regular blood samples taken throughout the duration of the study in the context of the monitoring of vital parameters.
The variations in potassium (in mmol/l) between the first and the last administration of the medicament of the study are included in FIG. 8, in which B signifies basal level, D signifies day and M signifies month.

For `CCCCc1oc2ccc(NS(C)(=O)=O)cc2c1C(=O)c1ccc(OCCCN(CCCC)CCCC)cc1` [dronedarone hydrochloride, 2-n-Butyl-3-[4-(3-di-n-butylaminopropoxy)benzoyl]-5-methylsulphonamidobenzofuran], which “change in blood potassium level (analysis of covariance)” value is on record?
Its value is “significant different in favour of dronedarone”.

— patent US9107900B2, “Use of dronedarone for the preparation of a medicament for use in the prevention of cardiovascular hospitalization or of morality” (SANOFI, priority 2008, dated 2015)
